Peptide text beside a SMILES is read from it.
Assays:
[1] = tested on: APCs presenting the natural or modified MAGE-3 T-cell epitope; assay: Cytotoxic CD4+ T cells elicited by in vivo immunisation; apoptosis (annexin V, Facs) of peptide-loaded APC in co-culture, MAGE-3 epitope; parameters: species or system C57BI/6 mice; details: 25 μg peptide, 3 footpath injections in CFA/IFA; splenic CD4+ T cells co-cultured 24 h with APC loaded with SEQ ID NO:1 or SEQ ID NO:2 (5 μg/mL)
Method: The sequence of the (natural) T-cell epitope corresponds to amino acids 258 to 266 of MAGE-3, namely: YRQVPGSDP (SEQ ID NO:1).
(§1) Finally, cells are analysed by Facs analysis.

[2] = tested on: APCs presenting the natural or modified survivin T-cell epitope; assay: Cytotoxic CD4+ T cells elicited by in vivo immunisation; apoptosis (annexin V, Facs) of peptide-loaded APC in co-culture, survivin epitope; parameters: species or system C57BI/6 mice; details: 25 μg peptide, 3 footpath injections in CFA/IFA; splenic CD4+ T cells co-cultured 24 h with APC loaded with SEQ ID NO:5 or SEQ ID NO:6 (5 μg/mL)
Method: The sequence of the peptide corresponds to amino acids 61 to 69 of survivin, namely: FKELEGWEP (SEQ ID NO:5).
as §1

[3] = tested on: APCs presenting the natural or modified Epstein-Barr LMP2 T-cell epitope; assay: Cytotoxic CD4+ T cells elicited by in vivo immunisation; apoptosis (annexin V, Facs) of peptide-loaded APC in co-culture, Epstein-Barr LMP2 epitope; parameters: species or system BALB/c mice; details: 25 μg peptide, 3 footpath injections in CFA/IFA; splenic CD4+ T cells co-cultured 24 h with APC loaded with SEQ ID NO:7 or SEQ ID NO:8 (5 μg/mL)
Method: The sequence of the peptide corresponds to amino acids 167 to 175 of LMP2, namely: VASSYAAAQ (SEQ ID NO:7).
Spleen adherent cells prepared from naïve BALB/c mice are used as antigen-presenting cells (APC).
as §1

SMILES: CC(C)[C@H](NC(=O)[C@H](CCC(N)=O)NC(=O)[C@H](CCCNC(=N)N)NC(=O)[C@H](Cc1ccc(O)cc1)NC(=O)[C@H](CS)NC(=O)CNC(=O)[C@H](Cc1c[nH]cn1)NC(=O)[C@@H](N)CS)C(=O)N1CCC[C@H]1C(=O)NCC(=O)N[C@@H](CO)C(=O)N[C@@H](CC(=O)O)C(=O)N1CCC[C@H]1C(=O)O [SEQ ID NO:2, CHGCYRQVPGSDP] (H-CHGCYRQVPGSDP-OH)
- elicitation of CD4+ T cells with cytotoxic properties towards APCs [1]: can elicit CD4+ T cells with cytotoxic properties

SMILES: CC(C)C[C@H](NC(=O)[C@H](CCC(=O)O)NC(=O)[C@H](CCCCN)NC(=O)[C@H](Cc1ccccc1)NC(=O)[C@H](CS)NC(=O)CNC(=O)[C@H](Cc1c[nH]cn1)NC(=O)[C@@H](N)CS)C(=O)N[C@@H](CCC(=O)O)C(=O)NCC(=O)N[C@@H](Cc1c[nH]c2ccccc12)C(=O)N[C@@H](CCC(=O)O)C(=O)N1CCC[C@H]1C(=O)O [SEQ ID NO:6, CHGCFKELEGWEP] (H-CHGCFKELEGWEP-OH)
- elicitation of CD4+ T cells with cytotoxic properties towards APCs [2]: can elicit CD4+ T cells with cytotoxic properties

SMILES: CC(C)[C@H](NC(=O)[C@H](CS)NC(=O)CNC(=O)[C@H](Cc1c[nH]cn1)NC(=O)[C@@H](N)CS)C(=O)N[C@@H](C)C(=O)N[C@@H](CO)C(=O)N[C@@H](CO)C(=O)N[C@@H](Cc1ccc(O)cc1)C(=O)N[C@@H](C)C(=O)N[C@@H](C)C(=O)N[C@@H](C)C(=O)N[C@@H](CCC(N)=O)C(=O)O [SEQ ID NO:8, CHGCVASSYAAAQ] (H-CHGCVASSYAAAQ-OH)
- elicitation of CD4+ T cells with cytotoxic properties towards APCs [3]: can elicit CD4+ T cells with cytotoxic properties

From patent US10617748B2, “Immunogenic control of tumours and tumour cells” (LIFE SCIENCES RESEARCH PARTNERS VZW, priority 2008, dated 2020)
